From ChEMBL document CHEMBL1126473, “Benzolactams as non-peptide cholecystokinin receptor ligands” (Bioorg Med Chem Lett, 1993) come the findings set out here.

Target in the first test: not listed separately
In words: Ability to inhibit the binding of [125I]CCK-8 to Cholecystokinin type B receptor in guinea pig cortex.
As usually defined, the IC50 is the concentration needed to halve the response being measured. A lower IC50 goes with higher potency. In turn, `CCOC(=O)CN1C(=O)C(NC(=O)Nc2ccc(Cl)cc2)N=C(c2ccccc2)c2ccccc21` (configuration not stated) had an IC50 of 1 nM.
Compound `O=C(Nc1ccc(Cl)cc1)NC1N=C(c2ccccc2)c2ccccc2N(CC(=O)N2CCCC2)C1=O` (configuration not stated) displayed an IC50 of 0.28 nM.

Target in a further test: not listed separately
Nature of the test: Ability to inhibit the binding of [125I]-gastrin to gastric glands in guinea pig.
With `CCOC(=O)CN1C(=O)C(NC(=O)Nc2ccc(Cl)cc2)N=C(c2ccccc2)c2ccccc21` (configuration not stated), the IC50 came out at 3.3 nM.
The compound `O=C(Nc1ccc(Cl)cc1)NC1N=C(c2ccccc2)c2ccccc2N(CC(=O)N2CCCC2)C1=O` (configuration not stated) showed an IC50 of 0.5 nM.

For the next test, the target named is T1, Cholecystokinin receptor type A (Rattus norvegicus, UniProt P30551).
T1 sequence (P30551 whole entry): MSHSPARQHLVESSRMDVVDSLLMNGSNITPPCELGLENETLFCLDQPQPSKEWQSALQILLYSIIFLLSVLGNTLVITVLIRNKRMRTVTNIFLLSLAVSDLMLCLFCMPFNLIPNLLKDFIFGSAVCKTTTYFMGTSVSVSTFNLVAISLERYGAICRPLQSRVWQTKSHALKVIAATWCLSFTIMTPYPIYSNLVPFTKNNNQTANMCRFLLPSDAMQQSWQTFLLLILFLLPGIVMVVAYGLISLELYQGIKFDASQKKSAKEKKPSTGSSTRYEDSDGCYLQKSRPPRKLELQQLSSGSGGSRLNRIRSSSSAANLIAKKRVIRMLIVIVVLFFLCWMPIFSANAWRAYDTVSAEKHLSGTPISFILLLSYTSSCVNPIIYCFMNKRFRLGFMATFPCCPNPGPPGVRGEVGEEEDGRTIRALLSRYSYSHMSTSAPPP
In words: Ability to inhibit the binding of [125I]CCK-8 to Cholecystokinin type A receptor in rat pancreas.
With `Cc1cccc(NC(=O)NC2CCc3ccccc3N(CC(=O)N3CCCC3)C2=O)c1` (configuration not stated), the IC50 is 130 nM.
`COc1cccc(NC(=O)N[C@H]2CCc3ccccc3N(CC(=O)N3CCCC3)C2=O)c1` came in with an IC50 of 335 nM.
For `CC(C)(C)OC(=O)CN1C(=O)C(NC(=O)c2ccc3ccccc3c2)CCc2ccccc21` (configuration not stated), the IC50 came out at 7.5 nM.
As for `Cc1cccc(NC(=O)NC2CCc3ccccc3N(CC(=O)OC(C)(C)C)C2=O)c1` (configuration not stated), the IC50 is 140 nM.
For `Cc1cccc(NC(=O)N[C@H]2CCc3ccccc3N(CC(=O)N3CCCC3)C2=O)c1`, the IC50 amounted to 1000 nM.
`Cc1cccc(NC(=O)N[C@@H]2CCc3ccccc3N(CC(=O)N3CCCC3)C2=O)c1` yielded an IC50 of 30 nM.
Regarding `COc1cccc(NC(=O)N[C@@H]2CCc3ccccc3N(CC(=O)N3CCCC3)C2=O)c1`, the IC50 is 28 nM.
Compound `COc1cccc(NC(=O)NC2CCc3ccccc3N(CC(=O)OC(C)(C)C)C2=O)c1` (configuration not stated) yielded an IC50 of 62 nM.
